This is an account of results in patent US10961228B2, “JAK1 selective inhibitors” (AstraZeneca AB, priority 2017, dated 2021).

By pIC50 is commonly meant the IC50 on a negative log10 scale, so that one unit is a factor of ten.

pIC50: −log10 of the molar value.

Experiment [1] deals with recombinant JAK2 (amino acids 831-1132) (Homo sapiens (Human), UniProt O60674). The experiment is described as follows: Enzyme inhibition studies, JAK2 (5 mM ATP, Caliper). Type of experiment: biochemical. The protocol: (§1) JAK enzyme was expressed as N-terminal GST fusion in insect cells and purified by glutathione-affinity and size-exclusion chromatographies. Enzymes were assayed at their approximated high end of physiological ATP concentration of 5 mM, in the presence of inhibitor dosed at 30, 3, 0.3, 0.03, 0.003 and 0 μM final test concentrations.
Chain of recombinant JAK2 (amino acids 831-1132) (O60674 831-1132): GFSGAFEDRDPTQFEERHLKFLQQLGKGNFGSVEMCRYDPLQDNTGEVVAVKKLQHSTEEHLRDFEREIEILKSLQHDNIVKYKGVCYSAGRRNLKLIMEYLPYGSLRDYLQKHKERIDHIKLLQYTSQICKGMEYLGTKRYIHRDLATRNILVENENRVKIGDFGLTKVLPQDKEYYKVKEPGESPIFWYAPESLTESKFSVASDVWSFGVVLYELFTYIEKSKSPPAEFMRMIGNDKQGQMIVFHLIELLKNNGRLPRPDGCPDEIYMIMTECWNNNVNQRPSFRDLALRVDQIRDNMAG
(§2) Phosphorylated and unphosphotylated peptides were separated and quantified by a Caliper LC3000 system (Caliper Life Sciences, MA) for calculating percent inhibition.

For experiment [2], the target named is recombinant JAK1 (amino acids 866-1154) (Homo sapiens (Human), UniProt P23458). Nature of the experiment: Enzyme inhibition studies, JAK1 (5 mM ATP, Caliper). Format: biochemical. The protocol: as §1, §2
Chain of recombinant JAK1 (amino acids 866-1154) (P23458 866-1154): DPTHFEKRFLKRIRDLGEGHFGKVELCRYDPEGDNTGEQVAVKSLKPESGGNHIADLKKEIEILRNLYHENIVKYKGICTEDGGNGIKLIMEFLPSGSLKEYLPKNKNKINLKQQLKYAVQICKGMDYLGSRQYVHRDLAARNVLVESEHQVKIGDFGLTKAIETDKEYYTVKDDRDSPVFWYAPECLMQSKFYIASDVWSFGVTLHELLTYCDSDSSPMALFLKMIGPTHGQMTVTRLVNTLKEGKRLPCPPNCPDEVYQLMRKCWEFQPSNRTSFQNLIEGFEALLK
In experiment [3] the test system is IL-13 induced STAT6 promotor luciferase reporter in U937 monocytes (U937-STAT6-Luc). The experiment is described as follows: Cellular interleukin (IL-13) induced JAK-STAT6-luciferase assay (pSTAT6). Format: cell-based. Conditions: Homo sapiens, U-937; IL-13 induced STAT6-luciferase, U937-STAT6-Luc cells. The protocol:
Cells were harvested by centrifugation at 250 g for 5 min and resuspended in Assay buffer (20 mM HEPES, 1×HBSS and 0.1% BSA) to 1000 cells pr μl. For stimulation of cells was used interleukin (IL-13) also dissolved in Assay buffer to […]. […] Test and control compounds were applied to assay plates (low vol white 384-well plates) in serial dilutions from 10 mM to 0.5 nM at 5 nl pr well in DMSO.
To each well was added 4 μl cells and 4 μl interleukin (IL-13) and the plates were sealed and incubated at 37° C. for 4½ h and then at room temperature for 30 min. The assay was developed by addition of 4 μl pr well of SteadyGlo (Promega) and after […] the plates were read at an Envision plate reader with luminescence filter.

In experiment [4] the target is recombinant JAK3 (amino acids 781-1124) (Homo sapiens (Human), UniProt P52333). Nature of the experiment: Enzyme inhibition studies, JAK3 (5 mM ATP, Caliper). Type of experiment: biochemical. As for the experimental part: as §1, §2
Chain of recombinant JAK3 (amino acids 781-1124) (P52333 781-1124): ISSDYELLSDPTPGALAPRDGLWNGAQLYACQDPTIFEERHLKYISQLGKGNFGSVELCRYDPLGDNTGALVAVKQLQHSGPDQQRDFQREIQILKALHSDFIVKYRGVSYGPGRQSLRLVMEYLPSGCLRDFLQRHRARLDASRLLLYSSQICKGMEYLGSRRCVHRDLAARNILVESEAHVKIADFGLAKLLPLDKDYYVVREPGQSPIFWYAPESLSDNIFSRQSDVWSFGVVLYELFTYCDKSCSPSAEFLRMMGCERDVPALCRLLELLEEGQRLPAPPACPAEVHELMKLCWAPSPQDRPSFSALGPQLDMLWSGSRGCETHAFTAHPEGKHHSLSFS

`CC[C@@H](C(=O)Nc1cccc2c(-c3nc(Nc4cccc(S(C)(=O)=O)c4F)ncc3C)c[nH]c12)N1C[C@@H](C)N[C@H](C)C1` [Example 27, (S)-2-((3R,5R)-3,5-dimethylpiperazin-1-yl)-N-(3-(2-((2-fluoro-3-(methylsulfonyl)phenyl)amino)-5-methylpyrimidin-4-yl)-1H-indol-7-yl)butanamide]: the pIC50 was 6.79 in experiment [1], above 8.52 in experiment [2], 7.39 in experiment [3] and below 4.52 in experiment [4].
`COC[C@@H](C(=O)Nc1cccc2c(-c3nc(Nc4cccc(S(C)(=O)=O)c4F)ncc3C)c[nH]c12)N1C[C@@H](C)N[C@H](C)C1` [Example 28, (S)-2-((3R,5R)-3,5-dimethylpiperazin-1-yl)-N-(3-(2-((2-fluoro-3-(methylsulfonyl)phenyl)amino)-5-methylpyrimidin-4-yl)-1H-indol-7-yl)-3-methoxypropanamide]: the negative logarithm of the IC50 (pIC50) was 5.13 in experiment [1], 7.34 in experiment [2], 6.83 in experiment [3] and below 4.52 in experiment [4].
For `COC[C@H](C(=O)Nc1cccc2c(-c3nc(Nc4cccc(S(C)(=O)=O)c4F)ncc3C)c[nH]c12)N1C[C@@H](C)N[C@H](C)C1` [Example 29, (R)-2-((3R,5R)-3,5-dimethylpiperazin-1-yl)-N-(3-(2-((2-fluoro-3-(methylsulfonyl)phenyl)amino)-5-methylpyrimidin-4-yl)-1H-indol-7-yl)-3-methoxypropanamide], in that order: 5.92, above 8.52, 7.40 and below 4.52.
For `CC[C@@H](C(=O)Nc1cccc2c(-c3nc(Nc4cccc(S(C)(=O)=O)c4F)ncc3F)c[nH]c12)N1C[C@@H](C)N[C@H](C)C1` [Example 30, (S)-2-((3R,5R)-3,5-dimethylpiperazin-1-yl)-N-(3-(5-fluoro-2-((2-fluoro-3-(methylsulfonyl)phenyl)amino)pyrimidin-4-yl)-1H-indol-7-yl)butanamide], in that order: 5.94, 7.85, 7.14 and below 4.52.
For `CC[C@H](C(=O)Nc1cccc2c(-c3nc(Nc4cccc(S(C)(=O)=O)c4F)ncc3F)c[nH]c12)N1C[C@@H](C)N[C@H](C)C1` [Example 31, (R)-2-((3R,5R)-3,5-dimethylpiperazin-1-yl)-N-(3-(5-fluoro-2-((2-fluoro-3-(methylsulfonyl)phenyl)amino)pyrimidin-4-yl)-1H-indol-7-yl)butanamide], in that order: 5.75, 8.19, 7.13 and below 4.52.
`COC[C@@H](C(=O)Nc1cccc2c(-c3nc(Nc4cccc(S(C)(=O)=O)c4F)ncc3F)c[nH]c12)N1C[C@@H](C)N[C@H](C)C1` [Example 32]: the pIC50 in experiment [1] is below 4.52; in experiment [2], 6.32; in experiment [3], 6.03; in experiment [4], below 4.52.
Consider `COC[C@H](C(=O)Nc1cccc2c(-c3nc(Nc4cccc(S(C)(=O)=O)c4F)ncc3F)c[nH]c12)N1C[C@@H](C)N[C@H](C)C1` [Example 33, (R)-2-((3R,5R)-3,5-dimethylpiperazin-1-yl)-N-(3-(5-fluoro-2-((2-fluoro-3-(methylsulfonyl)phenyl)amino)pyrimidin-4-yl)-1H-indol-7-yl)-3-methoxypropanamide], for which the negative-log IC50 (pIC50) is 5.71 in experiment [1], above 8.52 in experiment [2], 7.26 in experiment [3] and below 4.52 in experiment [4].
On to `CC[C@@H](C(=O)Nc1cccc2c(-c3nc(Nc4cccc(S(C)(=O)=O)c4F)ncc3C)c[nH]c12)N1CCCN(C)CC1` [Example 36, (S)-N-(3-(2-((2-fluoro-3-(methylsulfonyl)phenyl)amino)-5-methylpyrimidin-4-yl)-1H-indol-7-yl)-2-(4-methyl-1,4-diazepan-1-yl)butanamide], for which the pIC50 is below 4.52 in experiment [1], 7.15 in experiment [2], 6.78 in experiment [3] and below 4.52 in experiment [4].
Turning to `CC[C@H](C(=O)Nc1cccc2c(-c3nc(Nc4cccc(S(C)(=O)=O)c4F)ncc3C)c[nH]c12)N1CCCN(C)CC1` [Example 37, (R)-N-(3-(2-((2-fluoro-3-(methylsulfonyl)phenyl)amino)-5-methylpyrimidin-4-yl)-1H-indol-7-yl)-2-(4-methyl-1,4-diazepan-1-yl)butanamide], the pIC50 in experiment [1] was 6.01; in experiment [2] it was above 8.52; in experiment [3], 7.57; in experiment [4] it was below 4.52.
Consider `CC[C@H](C(=O)Nc1cccc2c(-c3nc(Nc4cccc(S(C)(=O)=O)c4F)ncc3F)c[nH]c12)N1CCN(C)CC1` [Example 38], for which the pIC50 was 5.16 in experiment [1], 8.48 in experiment [2], 7.37 in experiment [3] and below 4.52 in experiment [4].
Regarding `CC[C@@H](C(=O)Nc1cccc2c(-c3nc(Nc4cccc(S(C)(=O)=O)c4F)ncc3F)c[nH]c12)N1CCN(C)CC1` [Example 39, (S)-N-(3-(5-fluoro-2-((2-fluoro-3-(methylsulfonyl)phenyl)amino)pyrimidin-4-yl)-1H-indol-7-yl)-2-(4-methylpiperazin-1-yl)butanamide], the pIC50 in experiment [1] is below 4.52; in experiment [2], 6.59; in experiment [3], 6.35; in experiment [4] it was below 4.52.
On to `COC[C@@H](C(=O)Nc1cccc2c(-c3nc(Nc4cccc(S(C)(=O)=O)c4F)ncc3F)c[nH]c12)N1C[C@H](C)N(C)[C@@H](C)C1` [Example 40], for which the negative-log IC50 (pIC50) in experiment [1] is below 4.52; in experiment [2] it was 5.48; in experiment [3], below 5.20; in experiment [4] it was below 4.52.
Regarding `COC[C@H](C(=O)Nc1cccc2c(-c3nc(Nc4cccc(S(C)(=O)=O)c4F)ncc3F)c[nH]c12)N1C[C@H](C)N(C)[C@@H](C)C1` [Example 41, (R)-N-(3-(5-fluoro-2-((2-fluoro-3-(methylsulfonyl)phenyl)amino)pyrimidin-4-yl)-1H-indol-7-yl)-3-methoxy-2-((3S,5S)-3,4,5-trimethylpiperazin-1-yl)propanamide], the negative-log IC50 (pIC50) is 5.32 in experiment [1], 8.40 in experiment [2], 7.24 in experiment [3] and below 4.52 in experiment [4].
`COC[C@H](C(=O)Nc1cccc2c(-c3nc(Nc4cccc(S(C)(=O)=O)c4F)ncc3C)c[nH]c12)N1CCCN(C)CC1` [Example 42, (R)-N-(3-(2-((2-fluoro-3-(methylsulfonyl)phenyl)amino)-5-methylpyrimidin-4-yl)-1H-indol-7-yl)-3-methoxy-2-(4-methyl-1,4-diazepan-1-yl) propanamide]: the pIC50 was 6.22 in experiment [1], above 8.52 in experiment [2], 7.44 in experiment [3] and below 4.52 in experiment [4].
For `COC[C@@H](C(=O)Nc1cccc2c(-c3nc(Nc4cccc(S(C)(=O)=O)c4F)ncc3C)c[nH]c12)N1CCCN(C)CC1` [Example 43, (S)-N-(3-(2-((2-fluoro-3-(methylsulfonyl)phenyl)amino)-5-methylpyrimidin-4-yl)-1H-indol-7-yl)-3-methoxy-2-(4-methyl-1,4-diazepan-1-yl)propanamide], in that order: below 4.52, 7.02, 6.32 and below 4.52.
For `COC[C@@H](C(=O)Nc1cccc2c(-c3nc(Nc4cccc(S(C)(=O)=O)c4F)ncc3F)c[nH]c12)N1CCCN(C)CC1` [Example 44, (S)-N-(3-(5-fluoro-2-((2-fluoro-3-(methylsulfonyl)phenyl)amino)pyrimidin-4-yl)-1H-indol-7-yl)-3-methoxy-2-(4-methyl-1,4-diazepan-1-yl)propanamide], the negative logarithm of the IC50 (pIC50) in experiment [1] was below 4.52; in experiment [2] it was 6.02; in experiment [3], 5.52; in experiment [4], below 4.52.
In the case of `COC[C@H](C(=O)Nc1cccc2c(-c3nc(Nc4cccc(S(C)(=O)=O)c4F)ncc3F)c[nH]c12)N1CCCN(C)CC1` [Example 45, (R)-N-(3-(5-fluoro-2-((2-fluoro-3-(methylsulfonyl)phenyl)amino)pyrimidin-4-yl)-1H-indol-7-yl)-3-methoxy-2-(4-methyl-1,4-diazepan-1-yl)propanamide], the pIC50 in experiment [1] is 6.14; in experiment [2], above 8.52; in experiment [3], 7.44; in experiment [4], below 4.52.
Regarding `C[C@H](C(=O)Nc1cccc2c(-c3nc(Nc4cccc(S(C)(=O)=O)c4F)ncc3F)c[nH]c12)N1CCCN(C)CC1` [Example 46, (R)-N-(3-(5-fluoro-2-((2-fluoro-3-(methylsulfonyl)phenyl)amino)pyrimidin-4-yl)-1H-indol-7-yl)-2-(4-methyl-1,4-diazepan-1-yl)propanamide], the negative logarithm of the IC50 (pIC50) in experiment [1] was 4.75; in experiment [2] it was 7.70; in experiment [3], 7.08; in experiment [4], below 4.52.
